Key:
CD8+ T cells = test: In vitro immunogenicity: priming of CD8+ T cells with aAPCs loaded with peptide/MHC and anti-CD28, multimer readout; type: cell-based, human; settings: for Wells positive [%]: HLA-A*02 restricted peptides, percentage of positive wells (among evaluable)
Procedure: In an aspect, the peptides are pre-screened for immunogenicity before being included in the warehouse. By way of example, and not limitation, the immunogenicity of the peptides included in the warehouse is determined by a method comprising in vitro T-cell priming through repeated stimulations of CD8+ T cells from healthy donors with artificial antigen presenting cells loaded with peptide/MHC complexes and anti-CD28 antibody.
FIGS. 3A to 3F show exemplary immunogenicity data: flow cytometry results after peptide-specific multimer staining. CD8+ T cells were primed using artificial APCs coated with anti-CD28 mAb and HLA-A*02 in complex with SeqID No 662 (FIG. 3A, left panel), SeqID No 663 (FIG. 3B, left panel), SeqID No 11 peptide (FIG. 3C, left panel), SeqID No 198 peptide (FIG. 3D, left panel), SeqID No 587 peptide (FIG. 3E, left panel) and SeqID No 427 peptide (FIG. 3F, left panel), respectively. After three cycles of stimulation, the detection of peptide-reactive cells was performed by 2D multimer staining with A*02/SeqID No 662 (FIG. 3A), A*02/SeqID No 663 (FIG. 3B), A*02/SeqID No 11 (FIG. 3C), A*02/SeqID No 198 (FIG. 3D), A*02/SeqID No 587 (FIG. 3E) or A*02/SeqID No 427 (FIG. 3F). Right panels (FIGS. 3A, 3B, 3C, 3D, 3E, and 3F) show control staining of cells stimulated with irrelevant A*02/peptide complexes. Viable singlet cells were gated for CD8+ lymphocytes. Boolean gates helped excluding false-positive events detected with multimers specific for different peptides. Frequencies of specific multimer+ cells among CD8+ lymphocytes are indicated.
In Vitro Immunogenicity for MHC Class I Presented Peptides
In order to obtain information regarding the immunogenicity of the TUMAPs of the present invention, the inventors performed investigations using an in vitro T-cell priming assay based on repeated stimulations of CD8+ T cells with artificial antigen presenting cells (aAPCs) loaded with peptide/MHC complexes and anti-CD28 antibody.
In Vitro Priming of CD8+ T Cells
In order to perform in vitro stimulations by artificial antigen presenting cells loaded with peptide-MHC complex (pMHC) and anti-CD28 antibody, the inventors first isolated CD8+ T cells from fresh HLA-A*02 leukapheresis products via positive selection using CD8 microbeads (Miltenyi Biotec, Bergisch-Gladbach, Germany) of healthy donors obtained from the University clinics Mannheim, Germany, after informed consent.
PBMCs and isolated CD8+ lymphocytes were incubated in T-cell medium (TCM) until use consisting of RPMI-Glutamax (Invitrogen, Karlsruhe, Germany) supplemented with 10% heat inactivated human AB serum (PAN-Biotech, Aidenbach, Germany), 100 U/ml Penicillin/100 μg/ml Streptomycin (Cambrex, Cologne, Germany), 1 mM sodium pyruvate (CC Pro, Oberdorla, Germany), 20 μg/ml Gentamycin (Cambrex). 2.5 ng/ml IL-7 (PromoCell, Heidelberg, Germany) and 10 U/ml IL-2 (Novartis Pharma, Nümberg, Germany) were also added to the TCM at this step.
Generation of pMHC/anti-CD28 coated beads, T-cell stimulations and readout was performed in a highly defined in vitro system using four different pMHC molecules per stimulation condition and 8 different pMHC molecules per readout condition.
The purified co-stimulatory mouse IgG2a anti human CD28 Ab 9.3 (Jung et al., 1987) was chemically biotinylated using Sulfo-N-hydroxysuccinimidobiotin as recommended by the manufacturer (Perbio, Bonn, Germany). Beads used were 5.6 μm diameter streptavidin coated polystyrene particles (Bangs Laboratories, Illinois, USA).
pMHC used for positive and negative control stimulations were A*0201/MLA-001 (peptide […] (SEQ ID NO. 664) from modified Melan-A/MART-1) and A*0201/DDX5-001 ([…] from DDX5, SEQ ID NO. 665), respectively.
800.000 beads/200 μl were coated in 96-well plates in the presence of 4×12.5 ng different biotin-pMHC, washed and 600 ng biotin anti-CD28 were added subsequently in a volume of 200 μl. […]

HLA-A*02:01 = HLA-A*02:01 (Homo sapiens, UniProt P04439, D140Y/D185E/D98H/E176V/E277Q/G131W/G231S/I119V/I121R/I166T/I218V/L300P/L318F/N151K/N90K/P208A/P217A/Q86G/Q94H/R138H/R169H/T345S); test: MHC binding assay (UV-ligand exchange, anti-β2m ELISA, peptide exchange yield); settings: binding to HLA-A*02:01
In short: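 Yield of stabilized complexes quantified via the β2m light chain in an ELISA (streptavidin capture, 100-fold diluted monomers, HRP anti-β2m 2 ug/ml at 37 °C, TMB, A450). The complexes come from UV-triggered replacement of a photocleavable ligand by the candidate peptide.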

Substance	Peptide exchange (MHC class I binding score, peptide exchange yield) (HLA-A*02:01)	Wells positive [%] (CD8+ T cells)	donors (CD8+ T cells; percentage of positive donors)	wells (CD8+ T cells; percentage of positive wells)
242 (AIAYILQGV; listed as Homo sapiens) [compound 242]	“++” (>20% = ++)	“+++” (50% - 69% = +++)	–	–
247 (VLLPNDLLEKV; listed as Homo sapiens) [compound 247]	“+++” (>50 = +++)	“+” (<20% = +)	–	–
319 (SLEPQIQPV; listed as Homo sapiens) [compound 319]	“++” (>20% = ++)	“+” (<20% = +)	–	–
384 (ILFANPNIFV; listed as Homo sapiens) [compound 384]	“+++” (>50 = +++)	“+” (<20% = +)	–	–
395 (ALALGGIAVV; listed as Homo sapiens) [compound 395]	“++++” (>75% = ++++)	“+++” (50% - 69% = +++)	–	–
454 (KLPPPPPQA; listed as Homo sapiens) [compound 454]	“+++” (>50 = +++)	“++” (20% - 49% = ++)	–	–
511 (FLDPYCSASV; listed as Homo sapiens) [compound 511]	“++” (>20% = ++)	“+” (<20% = +)	–	–
518 (KLNAEVACV; listed as Homo sapiens) [compound 518]	“+++” (>50 = +++)	“++” (20% - 49% = ++)	–	–
603 (FLIEPEHVNTV; listed as Homo sapiens) [compound 603]	“++” (>20% = ++)	“+” (<20% = +)	–	–

Second part, led by results:

Peptide exchange (MHC class I binding score, peptide exchange yield) (HLA-A*02:01)	Substance	Wells positive [%] (CD8+ T cells)	donors (CD8+ T cells; percentage of positive donors)	wells (CD8+ T cells; percentage of positive wells)
“++” (>20% = ++)	191 (LLQEGQALEYV; listed as Homo sapiens) [compound 191]	“+++” (50% - 69% = +++)	–	–
“+++” (>50 = +++)	198 (KTINKVPTV; listed as Homo sapiens) [compound 198]	“++” (20% - 49% = ++)	–	–
“+++” (>50 = +++)	199 (ALQDVPLSSV; listed as Homo sapiens) [compound 199]	“+” (<20% = +)	–	–
“+++” (>50 = +++)	215 (QLINHLHAV; listed as Homo sapiens) [compound 215]	“++” (20% - 49% = ++)	–	–
“+++” (>50 = +++)	283 (ALYIGDGYVIHLA; listed as Homo sapiens) [compound 283]	–	+++ (50% - 69% = +++)	+ (<20% = +)
“+++” (>50 = +++)	443 (GLWEIENNPTV; listed as Homo sapiens) [compound 443]	“+” (<20% = +)	–	–
“+++” (>50 = +++)	446 (QLIPALAKV; listed as Homo sapiens) [compound 446]	“++” (20% - 49% = ++)	–	–
“++++” (>75% = ++++)	460 (AMLEKNYKL; listed as Homo sapiens) [compound 460]	“+” (<20% = +)	–	–
“+++” (>50 = +++)	463 (SLVESHLSDQLTL; listed as Homo sapiens) [compound 463]	“++” (20% - 49% = ++)	–	–
“+++” (>50 = +++)	489 (KMWEELPEVV; listed as Homo sapiens) [compound 489]	“+” (<20% = +)	–	–
“++” (>20% = ++)	499 (KIFDIDEAEEGV; listed as Homo sapiens) [compound 499]	“+” (<20% = +)	–	–

From patent US10239925B2, “Peptides and combination of peptides for use in immunotherapy against ovarian cancer and other cancers” (IMMATICS BIOTECHNOLOGIES GMBH, priority 2015, dated 2019)
